Entries after “also recorded” stand apart in the source; their conditions may differ.
What was measured:
[1] = tested on: DNA double-strand breaks in K562 cells; test: Assay 2: Constant-field gel electrophoresis (CFGE), DNA double-strand breaks; type: cell-based, human; conditions: 10 µM, 2 hours, FIGS. 3C & 3D
Procedure: Cells were seeded into 12-well format (e.g. 250.000 cells/well for K562, or Mjs), treated with indicated drugs at 10 µM for 2 hours. Subsequently, drugs were removed by extensive washing and cells were collected and processed immediately for the assays. DNA double strand breaks were quantified by constant-field gel electrophoresis as described in Wlodek D., Banáth J., & Olive P. L., International Journal of Radiation Biology, 1991, 60:5, 779-790. Images were quantified using imaged software.
Assay 2. Because anthracycline drugs can also evict histones, including H2AX, the levels of phosphorylated H2AX might be affected. To determine DNA double-strand break induction by the compounds embodying the present invention at the DNA level, we assessed the DNA damage capacity of all the compounds by using constant field gel electrophoresis (CFGE), as described below, a more direct method to detect DNA breaks. The results are set out in FIGS. 3C & 3D.

[2] = tested on: human myelogenous leukemic cell line K562; test: Assay 1: Short-term growth inhibition viability assay (CellTiter-Blue); type: cell-based; conditions: K562 cells
Procedure: Cells were seeded into 96-well format (e.g. 2000 cells/well for K562, Mjs, or U2O cells). 24 hours after seeding, cells were treated with indicated compounds for 2 hours at various concentrations. Subsequently, compounds were removed, and cells were left to grow for an additional 72 hours. Cell viability was measured using the CellTiter-Blue viability assay (Promega). Relative survival was normalized to the untreated control and corrected for background signal.
K562 cells (B. Pang, Leiden University Medical Center, the Netherlands) were maintained in RPMI-1640 medium supplemented with 8% FCS. MelJuSo cells were maintained in IMDM supplemented with 8% FCS. MelJuSo cells stably expressing PAGFP-H2A were maintained in IMDM supplemented with 8% FCS and G-418, as described in Pang, B., Qiao, X., Janssen, L. et al. Nat Commun 4, 1908 (2013). U2Os cells (ATCC® HTB-96) were maintained in DMEM medium supplemented with 8% FCS. Cell lines were maintained in a humidified atmosphere of 5% CO2 at 37°C, regularly tested for the absence of mycoplasma and the origin of cell lines was validated using STR analysis.
Assay 1. Anthracyclines are often used in the treatment of acute myeloid leukaemia and other haematological malignancies. Therefore, the compounds shown in FIG. 1 were assayed for their activity versus human myelogenous leukemic cell line K562 in order to determine their cytotoxicity in vitro, using the assay for short-term growth inhibition viability described herein. […] IC50 is expressed in µM and represents the concentration of compound required to inhibit cell proliferation by 50%.

MelJuSo-PAGFP-H2A cells = test: Assay 4: Microscopy analysis, PAGFP-H2A photoactivation and time-lapse confocal imaging (histone eviction); type: cell-based, human; conditions: 10 µM, 1 hour time-lapse; FIG. 4A
Procedure: For PAGFP-H2A photoactivation and time-lapse confocal imaging, cells were seeded in a 35mm glass bottom petri dish (Poly-dlysine-Coated, MatTek Corporation), and imaged 16 hours later as described in Pang, B., Qiao, X., Janssen, L. et al. Nat Commun 4, 2013, 1908 for one hour following addition of 10µM of the indicated drugs. Time-lapse confocal imaging was performed on a Leica SP8 confocal microscope system 63x lens, equipped with a climate chamber. Movies were quantified using imaged software.
Assay 4. This assay visualised histone eviction and subsequently, the chromatin damage induced by the compounds embodying the present invention could be assessed. The method followed is described in the assay for microscopy analysis described herein.

[3] = tested on: γH2AX levels in K562 cells; test: Assay 3: Western blot of γH2AX levels (DNA damage); type: cell-based, human; conditions: 10 µM, 2 h, FIGS. 3A & 3B
Procedure: Cells were seeded into 12-well format (e.g. 250.000 cells/well for K562, or Mjs), treated with indicated drugs at 10 µM for 2 hours. Subsequently, drugs were removed by extensive washing and cells were collected and processed immediately for the assays. Cells were lysed directly in SDS-sample buffer (2%SDS, 10% glycerol, 5% β-mercaptoethanol, 60mM Tris-HCl pH 6.8 and 0.01% bromophenol blue). Samples were separated by SDS-PAGE and transferred to a PVDF membrane (Immobilon-P, 0.45µm, Millipore). Blocking of the filters and antibody incubations were done in PBS supplemented with 0.1 (v/v)% Tween and 5% (w/v) milk powder (Skim milk powder, LP0031, Oxiod). Blots were imaged by the Odyssey Classic imager (Li-Cor). Intensity of bands was quantified using imaged or Image Studio software. For CFGE: DNA double strand breaks were quantified by constant-field gel electrophoresis as described in Wlodek D., Banáth J., & Olive P. L., International Journal of Radiation Biology, 1991, 60:5, 779-790. Images were quantified using imaged software.
Primary antibodies used for Western blotting: γH2AX (1:1000, 05-036, Millipore), β-actin (1:10000, A5441, Sigma). […]
Assay 3. […] This was determined by assessing γH2AX levels (see Kuo, L. J., Yang, L. X. In Vivo. April 2008, pp 305-310) using the assay for Western blot analysis described herein. […]

Row | SMILES | DNA double-strand break induction (CFGE) [1] | cytotoxicity (in words, compared with reference anthracyclines) ([2]; FIG. 2A) | IC50 ([2]; 2 hours treatment, then 72 hours growth) [nM] | times more cytotoxic than doxorubicin (1) ([2]; relative to doxorubicin (1)) [times] | chromatin damage / rate of histone eviction (in words) (MelJuSo-PAGFP-H2A cells) | DNA damage (γH2AX levels) [3]
1 | CC(=O)[C@]1(O)Cc2c(O)c3c(c(O)c2[C@@H](O[C@H]2C[C@H](N(C)C)[C@H](O[C@H]4C[C@H](O)[C@H](O[C@H]5CCC(=O)[C@H](C)O5)[C@H](C)O4)[C@H](C)O2)C1)C(=O)c1ccccc1C3=O [Compound 26, 7-[2,3-Dideoxy-4-ulo-α-L-fucopyranosyl-2-deoxy-α-L-fucopyranosyl-(1→4)- -2,3-dideoxy-3-dimethylamino-α-L-fucopyranoside]-idarubicinone] | do not induce DNA; also recorded: not inducing any DNA double-strand breaks | considerably more cytotoxic than doxorubicin (1); also recorded: most effective compound tested; also recorded: more toxic than doxorubicin (1), aclarubicin (2) and idarubicin (17) | 20 | 16 | superior chromatin damage activity relative to doxorubicin (1); also recorded: fastest histone eviction activity; also recorded: more efficient in terms of histone eviction | did not induce DNA damage
2 | CC(=O)[C@]1(O)Cc2c(O)c3c(c(O)c2[C@@H](O[C@H]2C[C@H](N(C)C)[C@H](O)[C@H](C)O2)C1)C(=O)c1ccccc1C3=O [Compound 18, N,N-dimethylidarubicin] | do not induce DNA; also recorded: does not induce any DNA double-strand breaks |  |  |  | superior chromatin damage activity relative to doxorubicin (1); also recorded: improved or comparable toxicity and rate of histone eviction relative to doxorubicin (1) and idarubicin (17) | did not induce DNA damage
